Measurements: ChEMBL document CHEMBL3632490, “Cytotoxic Barrigenol-like Triterpenoids from an Extract of Cyrilla racemiflora Housed in a Repository” (J Nat Prod, 2015)

tested on: HT-29; test: Cytotoxicity against human HT-29 cells assessed as inhibition of cell viability after 3 days by sulforhodamine B assay; assay type: functional, cell-based; details: HT-29, 72 h

SMILES	IC50
C/C=C(/C)C(=O)O[C@H]1[C@H](OC(C)=O)[C@]2(CO)[C@H](O)C[C@]3(C)C(=CC[C@@H]4[C@@]5(C)CC[C@H](O)C(C)(C)[C@@H]5CC[C@]43C)[C@@H]2CC1(C)C	7.8 µM
C/C=C(/C)C(=O)O[C@H]1[C@H](O)C(C)(C)C[C@H]2C3=CC[C@@H]4[C@@]5(C)CC[C@H](O)C(C)(C)[C@@H]5CC[C@@]4(C)[C@]3(C)[C@@H](O)[C@@H](O)[C@]21CO	> 10 µM
C/C=C(/C)C(=O)O[C@H]1CC(C)(C)C[C@H]2C3=CC[C@@H]4[C@@]5(C)CC[C@H](O)C(C)(C)[C@@H]5CC[C@@]4(C)[C@]3(C)[C@@H](O)[C@@H](O)[C@@]12CO	8.7 µM
C/C=C(/C)C(=O)O[C@@H]1[C@@H](O)[C@H](O[C@H]2CC(C)(C)C[C@H]3C4=CC[C@@H]5[C@@]6(C)C=C[C@H](O)C(C)(C)[C@@H]6CC[C@@]5(C)[C@]4(C)C[C@@H](O)[C@@]23CO)O[C@H](CO)[C@H]1OC(=O)/C(C)=C\C	> 10 µM
CC1(C)C[C@H]2C3=CC[C@@H]4[C@@]5(C)C=CC(=O)C(C)(C)[C@@H]5CC[C@@]4(C)[C@]3(C)C[C@@H](O)[C@@]2(CO)[C@@H](O)[C@@H]1O	> 10 µM
C/C=C(/C)C(=O)O[C@H]1[C@H](O)[C@]2(CO)[C@H](O)C[C@]3(C)C(=CC[C@@H]4[C@@]5(C)CC[C@H](O)C(C)(C)[C@@H]5CC[C@]43C)[C@@H]2CC1(C)C	1.7 µM

tested on: not listed separately; test: Cytotoxicity against human CCD-112CoN cells assessed as inhibition of cell viability after 3 days by sulforhodamine B assay; assay type: cell-based; details: 72 h

SMILES	IC50
CC(=O)O[C@H]1C(=O)[C@@]2(C)[C@H]([C@H](OC(=O)c3ccccc3)[C@]3(O)C[C@H](OC(=O)[C@H](O)[C@@H](NC(=O)c4ccccc4)c4ccccc4)C(C)=C1C3(C)C)[C@]1(OC(C)=O)CO[C@@H]1C[C@@H]2O [PACLITAXEL]	19.3 µM
C/C=C(/C)C(=O)O[C@H]1[C@H](O)[C@]2(CO)[C@H](O)C[C@]3(C)C(=CC[C@@H]4[C@@]5(C)CC[C@H](O)C(C)(C)[C@@H]5CC[C@]43C)[C@@H]2CC1(C)C	5.9 µM
